Tests used:
HsEg5 = molecular target: T1, HsEg5 (Homo sapiens, UniProt P52732); assay: Fluorescence detection of HsEg5 ATPase activity (ADP Quest, automated); assay type: biochemical
T1 sequence (P52732 18-359 limits assumed): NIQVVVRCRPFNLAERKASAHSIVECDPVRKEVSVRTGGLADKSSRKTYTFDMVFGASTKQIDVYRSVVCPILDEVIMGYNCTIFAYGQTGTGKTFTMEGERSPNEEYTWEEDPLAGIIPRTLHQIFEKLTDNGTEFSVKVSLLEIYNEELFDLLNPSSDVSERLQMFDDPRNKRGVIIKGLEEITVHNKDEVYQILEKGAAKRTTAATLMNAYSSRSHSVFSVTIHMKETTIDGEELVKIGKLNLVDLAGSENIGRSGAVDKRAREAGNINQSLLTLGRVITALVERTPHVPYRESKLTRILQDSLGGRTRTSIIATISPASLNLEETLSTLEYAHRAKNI
Procedure, shortened: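 Microtubule-activated HsEg5 motor fragment (10 nM, 500 nM MTs) preincubated 10 min with compound, then 20 μM ATP for 10 min at room temperature in Pipes pH 7.0, MgCl2, paclitaxel, 0.3% DMSO. ADP detected via coupled-enzyme resorufin fluorescence; IC50 over 100 μM–5 nM.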

PACA2 tumor xenografts = assay: PACA2 tumor xenograft efficacy study (Example 106); assay type: in vivo, mice
Protocol: Six-week old female athymic nude mice (NCR nu/nu; Charles River Laboratory, Wilmington, Mass.) were acclimated to the animal housing facility for at least 1 week before the study. Efficacy studies were performed in athymic mice bearing PACA2 tumor xenografts to determine the effect of compound on tumor growth. Tumor cells (1×10^7 PACA2 cells/animal) were inoculated subcutaneously on day 0. Tumor dimensions were measured by a digital microcaliper, and tumor volumes were calculated as length×width^2/2. […] Results are expressed as mean tumor volume±SE. To assess differences in tumor size between groups, a Mann-Whitney non-parametric t test was performed and significance was assessed for p values <0.05. Tumor size was evaluated periodically during treatment at the indicated days post-inoculation. Results are represented as the mean of tumor volume in mm^3±SE of several tumors (n=10) in function of the treatment period. […] (See FIG. 1A).

In the case of `C#CC[C@H](c1nc2cc(Cl)ccc2c(=O)n1Nc1ccccc1)N(CCCN)C(=O)c1cccc(Cl)c1F` [Compound 1, N-(3-Amino-propyl)-3-chloro-N—[(R)-1-(7-chloro-4-oxo-3-phenylamino-3,4-dihydro-quinazolin-2-yl)-but-3-ynyl]-2-fluoro-benzamide], the IC50 (HsEg5) is reported as 28 nM, the “tumor growth compared to the vehicle control group” value (PACA2 tumor xenografts; 6.25 or 12.5 mg/kg intraperitoneally 3x weekly for 4 weeks, tumors ~100 mm^3 at start, FIG. 1A) is reported as “Significant reductions in tumor growth” and the tolerability of doses (PACA2 tumor xenografts; 6.25 or 12.5 mg/kg intraperitoneally 3x weekly, PACA2 xenograft mice) is reported as “well-tolerated”.

Source: patent US20110217300A1, “Quinazolinone Compounds and Methods of Use Thereof” (priority 2007, published 2011)
